Reference: patent publication EP2794556B1, “BIS-(ARYL/HETEROARYL)-METHYLENE COMPOUNDS, PHARMACEUTICAL COMPOSITIONS CONTAINING SAME AND THEIR USE FOR TREATING CANCER” (Gleason, James L., priority 2011, dated 2013)

Columns and labels:
786-0 = assay: NCI 60 cell panel
A498 = assay: NCI 60 cell panel
SF-268 = assay: NCI 60 cell panel
CCRF-CEM = assay: NCI 60 cell panel
UACC-257 = assay: NCI 60 cell panel
EKVX = assay: NCI 60 cell panel
LOX IMVI = assay: NCI 60 cell panel
SK-MEL-5 = assay: NCI 60 cell panel
OVCAR-8 = assay: NCI 60 cell panel
NCI-H322M = assay: NCI 60 cell panel
IGROVI = assay: NCI 60 cell panel
MDA-MB-468 = assay: NCI 60 cell panel
MCF7 = assay: NCI 60 cell panel
AT84 cells = assay: EdU cell growth assay; conditions: AT84 cells
Experimental: EdU cell growth assay. Click-iT EdU Alexa Fluor high-throughput imaging (HCS) assay for cell proliferation. HCS assays were performed on AT84 mouse squamous carcinoma cell line (ATCC) following the manufacturer's instruction (Molecular Probes, Invitrogen). […] All samples were in triplicate.

T-47D = assay: NCI 60 cell panel
VDR = target: T1, VDR (Homo sapiens, UniProt P11473); assay: VDR agonism by induction of CYP24 gene expression (RT/PCR); type: cell-based
T1 construct: endogenous in cells; host or cells: SCC25 human head and neck squamous carcinoma cells
T1 sequence (P11473 1-427): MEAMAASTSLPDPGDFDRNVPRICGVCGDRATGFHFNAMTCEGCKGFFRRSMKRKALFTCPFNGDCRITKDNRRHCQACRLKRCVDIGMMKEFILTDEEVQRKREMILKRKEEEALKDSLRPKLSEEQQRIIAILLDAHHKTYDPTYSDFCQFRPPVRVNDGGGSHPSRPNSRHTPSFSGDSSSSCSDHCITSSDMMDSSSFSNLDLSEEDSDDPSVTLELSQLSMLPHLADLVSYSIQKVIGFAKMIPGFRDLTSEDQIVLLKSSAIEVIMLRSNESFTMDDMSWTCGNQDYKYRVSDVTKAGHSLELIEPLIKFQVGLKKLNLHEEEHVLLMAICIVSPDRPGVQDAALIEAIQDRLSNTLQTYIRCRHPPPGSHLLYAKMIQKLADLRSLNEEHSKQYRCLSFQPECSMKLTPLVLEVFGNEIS
Experimental: Cell culture. Human head and neck squamous carcinoma cell lines SCC4 and SCC45 and mouse HNSCC line AT84 were purchased from American Type Culture Collection (Manassas, VA) and cultured under recommended conditions. Cells were split at 60-70% confluence, as follows: cells were washed with filtered PBS, split with a 5-10 min incubation with 1 ml Trypsin-EDTA (Invitrogen, Carlsbad, CA) in PBS, collected with medium. Following centrifugation, the supernatant was removed. Cell pellets were resuspended with DMEM-F12, and distributed on fresh media-containing dishes. For treatments, AT84 cells were split and 24h later medium was changed to DMEM + 10% charcoal-stripped FBS.
RNA isolation and RT/PCR analysis. […]. Proc. Nat. Acad. Sci. U.S.A. 105, 8250-55. and Lamblin, M.et al Bioorganic & Medicinal Chemistry (2010) 18:4119-4137. After treatment, cells were washed with PBS, homogenized with 1ml TRIzol Reagent (Invitrogen, Carlsbad, CA), kept at room temperature for 2-5 min, collected and kept at -80 °C for at least 1h. After, thawing 0.2 ml chloroform was added. After vigorous mixing and storing for 10min, mixtures were centrifuged (10,000rpm, 15 min, 4 °C) and the upper transparent layer was transferred to a new tube. 0.5 ml isopropanol was added and the new solution was mixed. After centrifuging at 4 °C, the supernatant was discarded and 1ml of 75% ethanol was added. After centrifuging and discarding the supernatant, the pellet was air-dried for 5-10 min, and then dissolved in ddH2O. RNA concentrations were measured using a spectrophotometer, and 1-3µg of RNA were loaded for reverse transcriptase reactions (total volume: 20 µl). 80µl of ddH2O was added to the RT-product, and 1.5µl of that was used as template for the PCR reaction. Reverse transcriptase (Super Script II) was purchased from Invitrogen (Carlsbad, CA). DNA polymerase and dNTP's were ordered from Fermentas (Glen Burnie, MD).
Test compounds (10 µM) were first screened for VDR agonism by analysis of induction of CYP24 gene expression in 1,25D-sensitive human SCC25 cells. […]. Consistent with binding to the VDR, induction of CYP24 by compound JF-B01, compound JF-B53 or compound 16 (JF-B54) was blocked (Fig. 1c). […]

NCI-H226 = assay: NCI 60 cell panel

For `CCC(CC)(c1ccc(OCC(=O)NO)c(C)c1)c1ccc(OCC(O)C(C)(C)C)c(C)c1` (racemic) [JF-B01, N-Hydroxy-2-(4-(3-(4-(2-hydroxy-3,3-dimethylbutoxy)-3-methylphenyl)pentan-3-yl)-2-methylphenoxy)acetamide], the GI50 (786-0; Homo sapiens, 786-0) was 11.3 µM, the CC50 (786-0; Homo sapiens, 786-0, read-out: LC50) was 51.3 µM and the TGI (786-0; Renal Cancer, 786-0) was 2.41E-5. It also gave a GI50 (A498; Homo sapiens, A498) of 4.56 µM, a CC50 (A498; Homo sapiens, A498, read-out: LC50) of 45.6 µM and a TGI (A498; Renal Cancer, A498) of 2.08E-5. The TGI (SF-268; CNS Cancer, SF-268) was 1.06E-5, the GI50 (SF-268; Homo sapiens, SF-268) was 2.26 µM and the CC50 (SF-268; Homo sapiens, SF-268, read-out: LC50) was 34.6 µM. For the same molecule, the GI50 (CCRF-CEM; Homo sapiens) was 0.576 µM, the CC50 (CCRF-CEM; Homo sapiens, read-out: LC50) was 42.2 µM and the TGI (CCRF-CEM; Leukemia) was 4.80E-6. It also gave a GI50 (UACC-257; Homo sapiens, UACC-257) of 3.34 µM, a CC50 (UACC-257; Homo sapiens, UACC-257, read-out: LC50) of 38.8 µM and a TGI (UACC-257; Melanoma, UACC-257) of 1.27E-5. For the same molecule, the GI50 (EKVX; Homo sapiens) was 2.87 µM, the CC50 (EKVX; Homo sapiens, read-out: LC50) was 35.3 µM and the TGI (EKVX; Non-Small Cell Lung Cancer) was 1.24E-5. For the same molecule, the GI50 (LOX IMVI; Homo sapiens) was 0.183 µM, the CC50 (LOX IMVI; Homo sapiens, read-out: LC50) was 0.602 µM and the TGI (LOX IMVI; Melanoma) was 3.32E-7. For the same molecule, the GI50 (SK-MEL-5; Homo sapiens, SK-MEL-5) was 1.39 µM, the CC50 (SK-MEL-5; Homo sapiens, SK-MEL-5, read-out: LC50) was 5.58 µM and the TGI (SK-MEL-5; Melanoma, SK-MEL-5) was 2.79E-6. For the same molecule, the GI50 (OVCAR-8; Homo sapiens, OVCAR-8) was 6.27 µM, the CC50 (OVCAR-8; Homo sapiens, OVCAR-8, read-out: LC50) was 51.1 µM and the TGI (OVCAR-8; Ovarian Cancer, OVCAR-8) was 2.03E-5. It also gave a GI50 (NCI-H322M; Homo sapiens) of 2.86 µM, a CC50 (NCI-H322M; Homo sapiens, read-out: LC50) of 33 µM and a TGI (NCI-H322M; Non-Small Cell Lung Cancer) of 1.08E-5. The GI50 (IGROVI; Homo sapiens) was 2.08 µM, the CC50 (IGROVI; Homo sapiens, read-out: LC50) was 19.2 µM and the TGI (IGROVI; Ovarian Cancer, IGROVI) was 5.25E-6. For the same molecule, the TGI (MDA-MB-468; Breast Cancer, MDA-MB-468) was 3.53E-6, the GI50 (MDA-MB-468; Homo sapiens, MDA-MB-468) was 1.57 µM and the CC50 (MDA-MB-468; Homo sapiens, MDA-MB-468, read-out: LC50) was 7.92 µM. It also gave a TGI (MCF7; Breast Cancer, MCF7) of 2.70E-6, a GI50 (MCF7; Homo sapiens, MCF7) of 0.333 µM and a CC50 (MCF7; Homo sapiens, MCF7, read-out: LC50) of 12.8 µM. The “antiproliferative potency, fold less potent than 1,25D” value (AT84 cells) was 10 fold, the TGI (T-47D; Breast Cancer, T-47D) was 6.69E-6 and the GI50 (T-47D; Homo sapiens, T47D) was 2.21 µM. The CC50 (T-47D; Homo sapiens, T47D, read-out: LC50) was 27.1 µM, the “induction of CYP24 by the compound was blocked” value (VDR; Fig. 1c, blocking agent not given) was “blocked” and the “VDR agonist potency compared with that of LG190178” value (VDR; SCC25 cells, Fig. 1b) was “equal to or greater”. The “VDR agonist potency, fold lower than that of 1,25D” value (VDR; SCC25 cells, Fig. 1b) was “approximately 10 fold”, the “VDR agonist activity and potency, induction of CYP24 gene expression” value (VDR; SCC25 cells, Fig. 1b, 1d) was “efficacious agonist” and the “VDR agonism by induction of CYP24 gene expression” value (VDR; screen at 10 µM, SCC25 cells, Fig. 1a) was “agonist activity”. It also gave a GI50 (NCI-H226; Homo sapiens, NCI-H226) of 1.98 µM, a CC50 (NCI-H226; Homo sapiens, NCI-H226, read-out: LC50) of 33 µM and a TGI (NCI-H226; Non-Small Cell Lung Cancer, NCI-H226) of 1.07E-5.
